# Like-named read-outs stand apart in the source and are kept apart here.
# What was measured:
# native Rho (rhodanese) = target: T1, native Rho (rhodanese) (Bos taurus, UniProt P00586); experiment: Counter-screen for inhibition of native rhodanese enzymatic activity; assay type: biochemical; settings: for log(IC50) Native Rho Reporter: log of IC50 (μM scale), with standard deviation
# T1 construct: purchased Roche (so in the source) R1756
# T1 sequence (P00586 1-297): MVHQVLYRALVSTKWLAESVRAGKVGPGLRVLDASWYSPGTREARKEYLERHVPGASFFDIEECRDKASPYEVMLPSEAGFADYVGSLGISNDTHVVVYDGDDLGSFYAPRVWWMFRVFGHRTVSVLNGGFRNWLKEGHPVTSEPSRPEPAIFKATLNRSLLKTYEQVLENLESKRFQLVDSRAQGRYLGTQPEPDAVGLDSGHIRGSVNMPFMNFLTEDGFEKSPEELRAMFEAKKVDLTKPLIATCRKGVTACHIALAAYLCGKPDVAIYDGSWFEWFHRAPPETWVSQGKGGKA
# Method: Reagent Preparations & Assay Protocol: Reagents were identical to those used in the GroEUES-dRho refolding assay described above; however, the assay protocol differed in the sequence of compound addition to the wells. Compounds were pin-transferred after the 60 minute incubation for the refolding cycle, but prior to the addition of the thiocyanate enzymatic assay stock. Thus, the refolding reactions were allowed to proceed for 60 min at 37° C. in the absence of test compounds, but the enzymatic activity of the refolded rhodanese reporter enzyme was monitored in the presence of test compounds (inhibitor concentration range during the enzymatic reporter reaction is 100 µM to 46 nM-3-fold dilutions). IC50 values for the rhodenase reporter enzyme were determined as described above. Results presented represent the averages of IC50 values obtained from at least quadriplicate (duplicate of duplicate) replicates.
# in vitro [1] = settings: human
# Method: (§1) HEK 293 cells were maintained in MEM medium (Corning Cellgro, 10-009 CV) supplemented with 10% FBS (Sigma, F2242). […] Cells at 80% confluence were harvested and diluted in growth medium, then 45 μL of the THLE-3 cells (1,500 cells/well) or HEK 293 cells (1,500 cells/well) were dispensed per well, and plates were sealed with “Breathe Easy” oxygen permeable membranes (Diversified Biotech) and incubated at 37° C., 5% CO2, for 24 h.
# in vitro [2] = settings: human; remark: listed apart in the source
# Method: as §1
# E. coli GroEL/ES = target: T2, E. coli GroEL/ES (Escherichia coli, UniProt P0A6F5); experiment: GroEL/ES-mediated dMDH refolding assay; assay type: biochemical
# T2 construct: made in house; host or cells: GroEL in E. coli DH5α; GroES in E. coli BL21 (DE3)
# Method: Reagent preparation: For these assays, four primary reagent stocks were prepared: 1) GroEUES-dMDH or HSP60/10-dMDH binary complex stock; 2) ATP initiation stock; 3) EDTA quench stock; 4) MDH enzymatic assay stock. Denatured MDH (dMDH) was prepared by 2-fold dilution of MDH (5 mg/ml, soluble pig heart MDH from Roche, product #10127248001) with denaturant buffer (7 M guanidine-HCl, 200 mM Tris, pH 7.4, and 50 mM DTT). MDH was completely denatured by incubating at room temperature for 45 min. The binary complex solutions were prepared by slowly adding the dMDH stock to a stirring stock with GroEL (or HSP60) in folding buffer (50 mM Tris-HCl, pH 7.4, 50 mM KCl, 10 mM MgCl2, and 1 mM DTT), followed by addition of GroES (or HSP10). The binary complex stocks were prepared immediately prior to dispensing into the assay plates and had final protein concentrations of 83.3 nM GroEL (Mr 800 kDa) or HSP60 (Mr 400 kDa), 100 nM GroES or HSP10 (Mr 70 kDa), and 20 nM dMDH in folding buffer. For the ATP initiation stock, ATP solid was diluted into folding buffer to a final concentration of 2.5 mM. Quench solution contained 600 mM EDTA (pH 8.0). The MDH enzymatic assay stock consisted of 20 mM sodium mesoxalate and 2.4 mM NADH in reaction buffer (50 mM Tris-HCl, pH 7.4, 50 mM KCl, and 1 mM DTT).
# Assay Protocol: First, 30 μL aliquots of the GroEL/ES-dMDH or HSP60/10-dMDH binary complex stocks were dispensed into clear, 384-well polystyrene plates. […] The chaperonin-mediated refolding cycles were initiated by addition of 20 μL of ATP stock (reagent concentrations during refolding cycle: 50 nM GroEL or HSP60, 60 nM GroES or HSP10, 12 nM dMDH, 1 mM ATP, and compounds of 100 μM to 46 nM, 3-fold dilution series). The refolding reactions were incubated at 37° C. […] Next, the assay was quenched by addition of 10 μL of the EDTA to final concentration of 100 mM. […] A340 nm measurements were recorded at 0.5 minutes (start point) and at successive time points until the amount of NADH consumed reached ˜90% (end point, generally between 20-35 minutes). The differences between the start and end point A340 values were used to calculate the % inhibition of the GroEL/ES or HSP60/10 machinery by the compounds. […] Results presented represent the averages of IC50 values obtained from at least quadriplicate (duplicate of duplicate) replicates.
# After generating the compound library, we next employed a series of well-established biochemical assays to evaluate compound inhibitory effects against the GroEUES chaperonin system (See FIG. 6 and FIG. 7). We used E. coli GroEUES as the surrogate chaperonin system for refolding of the reporter enzymes malate dehydrogenase (MDH) and rhodanese (Rho). Briefly, binary complexes are formed between GroEL and denatured MDH or Rho, which are then refolded to their native states upon addition of ATP and the GroES co-chaperonin. Enzymatic activities of refolded native MDH or Rho act as coupled reporters of GroEUES refolding functions since in the presence of chaperonin inhibitors, no functional reporter enzymes are generated.
# [3] = read-out: Biochemical Assay IC50 Native Rho Reporter
# [4] = log of IC50 (μM scale), with standard deviation
# [5] = read-out: Biochemical Assay IC50 GroEL/ES-dMDH refolding
# T2 sequence (P0A6F5 2-548): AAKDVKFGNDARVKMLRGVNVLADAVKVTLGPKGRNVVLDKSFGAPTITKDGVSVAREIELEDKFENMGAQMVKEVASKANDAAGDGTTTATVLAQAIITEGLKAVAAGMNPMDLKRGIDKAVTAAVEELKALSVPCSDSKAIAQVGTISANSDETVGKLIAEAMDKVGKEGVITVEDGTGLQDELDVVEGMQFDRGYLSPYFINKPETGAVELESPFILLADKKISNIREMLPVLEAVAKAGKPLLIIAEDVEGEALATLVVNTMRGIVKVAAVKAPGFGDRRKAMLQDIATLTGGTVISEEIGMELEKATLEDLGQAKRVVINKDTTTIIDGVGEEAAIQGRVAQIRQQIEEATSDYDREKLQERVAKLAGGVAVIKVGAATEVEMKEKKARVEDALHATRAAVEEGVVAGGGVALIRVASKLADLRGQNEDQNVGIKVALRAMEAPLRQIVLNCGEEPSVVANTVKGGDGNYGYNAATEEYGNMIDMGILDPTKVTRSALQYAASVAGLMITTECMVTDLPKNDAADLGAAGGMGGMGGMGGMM
SMILES,IC50 (native Rho (rhodanese); [3]),CC50 at 48 h (in vitro [1]),CC50 at 48 h (in vitro [2]),IC50 (E. coli GroEL/ES),log(IC50) Native Rho Reporter (native Rho (rhodanese)),log(IC50) GroEL/ES-dMDH Refolding (E. coli GroEL/ES; [4]),IC50 (E. coli GroEL/ES; [5]),IC50 (native Rho (rhodanese)),inhibition in the GroEL/ES-mediated refolding assays (in words) (E. coli GroEL/ES; dMDH and dRho refolding assays),"IC50 (E. coli GroEL/ES; log of IC50 (μM scale), with standard deviation, read-out: log(IC50) GroEL/ES-dMDH Refolding (converted))",CC50 at 48 h (in vitro [1]; HEK 293 kidney cells),CC50 at 48 h (in vitro [2]; THLE-3 liver cells)
"O=C(Nc1ccc(Sc2nc3ccccc3s2)c(Cl)c1)c1cc(Br)cc(Br)c1 [Compound 17, N-(4-(Benzo[d]thiazol-2-ylthio)-3-chlorophenyl)-3,5-dibromobenzamide]",> 100 µM,> 100 µM,> 100 µM,> 100 µM,–,–,–,–,–,–,–,–
"O=C(Nc1cccc(Cl)c1)c1cccc(Br)c1 [Compound 24, 3-Bromo-N-(3-chlorophenyl)benzamide]",> 100 µM,51.3 µM,50.1 µM,> 100 µM,>2,>2,–,–,–,–,–,–
"O=C(Nc1cccc(Cl)c1)c1ccccc1 [Compound 25, N-(3-Chlorophenyl)benzamide]",> 100 µM,> 100 µM,> 100 µM,> 100 µM,>2,>2,–,–,–,–,–,–
"COc1c(Br)cc(Br)cc1C(=O)Nc1cccc(Cl)c1 [Compound 37, 3,5-Dibromo-N-(3-chlorophenyl)-2-methoxybenzamide]",> 100 µM,> 100 µM,> 100 µM,> 100 µM,>2,>2,–,–,–,–,–,–
"O=C(Nc1cccc(Cl)c1)c1cc(Br)cc(Br)c1O [Compound 9, 3,5-Dibromo-N-(3-chlorophenyl)-2-hydroxybenzamide]",> 100 µM,18.2 µM,9.12 µM,–,>2,1.38 ± 0.15,24 µM,–,–,–,–,–
"COc1ccccc1C(=O)Nc1ccc(Sc2nc3ccccc3s2)c(Cl)c1 [Compound 32, N-(4-(Benzo[d]thiazol-2-ylthio)-3-chlorophenyl)-2-methoxybenzamide]",> 100 µM,> 100 µM,> 100 µM,> 100 µM,–,–,–,–,–,–,–,–
"CN[C@H](CC(C)C)C(=O)N[C@H]1C(=O)N[C@@H](CC(N)=O)C(=O)N[C@H]2C(=O)N[C@H]3C(=O)N[C@H](C(=O)N[C@H](C(=O)O)c4cc(O)cc(O)c4-c4cc3ccc4O)[C@H](O)c3ccc(c(Cl)c3)Oc3cc2cc(c3O[C@@H]2O[C@H](CO)[C@@H](O)[C@H](O)[C@H]2O[C@H]2C[C@](C)(N)[C@H](O)[C@H](C)O2)Oc2ccc(cc2Cl)[C@H]1O [Vancomycin, vancomycin, reference compound]",–,> 100 µM,> 100 µM,> 100 µM,>2,>2,–,> 100 µM,–,–,–,–
"COc1c(Br)cc(Br)cc1C(=O)Nc1ccccc1 [Compound 41, 3,5-Dibromo-2-methoxy-N-phenylbenzamide]",> 100 µM,> 100 µM,> 100 µM,> 100 µM,>2,>2,–,–,–,–,–,–
"O=C(Nc1ccc(Oc2ccc(Cl)cc2)c(Cl)c1)c1cc(I)cc(I)c1O [Rafoxanide, rafoxanide, reference compound]",–,> 100 µM,24 µM,–,>2,–,4.3 µM,> 100 µM,potent GroEUES inhibitors,4.37 µM,–,–
"COc1ccccc1C(=O)Nc1ccc(Sc2nc3ccccc3s2)cc1 [Compound 36, N-(4-(Benzo[d]thiazol-2-ylthio)phenyl)-2-methoxybenzamide]",> 100 µM,> 100 µM,> 100 µM,> 100 µM,–,–,–,–,–,–,–,–
"O=C(Nc1ccccc1)c1cccc(Br)c1 [Compound 27, 3-Bromo-N-phenylbenzamide]",> 100 µM,> 100 µM,> 100 µM,> 100 µM,>2,>2,–,–,–,–,–,–
"COc1ccc(Br)cc1C(=O)Nc1ccc(Sc2nc3ccccc3s2)cc1 [Compound 35, N-(4-(Benzo[d]thiazol-2-ylthio)phenyl)-5-bromo-2-methoxybenzamide]",> 100 µM,> 100 µM,> 100 µM,> 100 µM,–,–,–,–,–,–,–,–
"COc1ccccc1C(=O)Nc1cccc(Cl)c1 [Compound 40, N-(3-Chlorophenyl)-2-methoxybenzamide]",> 100 µM,> 100 µM,> 100 µM,> 100 µM,>2,>2,–,–,–,–,–,–
"O=C(Nc1ccccc1)c1cc(Br)cc(Br)c1 [Compound 26, 3,5-Dibromo-N-phenylbenzamide]",> 100 µM,> 100 µM,> 100 µM,> 100 µM,>2,>2,–,–,–,–,–,–
"COc1ccccc1C(=O)Nc1ccccc1 [Compound 44, 2-Methoxy-N-phenylbenzamide]",> 100 µM,> 100 µM,> 100 µM,> 100 µM,>2,>2,–,–,–,–,–,–
"O=C(Nc1ccc(Sc2nc3ccccc3s2)cc1)c1ccccc1 [Compound 22, N-(4-(Benzo[d]thiazol-2-ylthio)phenyl)benzamide]",> 100 µM,> 100 µM,> 100 µM,> 100 µM,–,–,–,–,–,–,–,–
"CC1(C)S[C@@H]2[C@H](NC(=O)[C@H](N)c3ccccc3)C(=O)N2[C@H]1C(=O)O [Ampicillin, ampicillin, reference compound]",> 100 µM,–,–,–,>2,>2,> 100 µM,–,–,–,> 100 µM,> 100 µM
"COc1c(Br)cc(Br)cc1C(=O)Nc1ccc(Sc2nc3ccccc3s2)c(Cl)c1 [Compound 29, N-(4-(Benzo[d]thiazol-2-ylthio)-3-chlorophenyl)-3,5-dibromo-2-methoxybenzamide]",> 100 µM,> 100 µM,> 100 µM,> 100 µM,–,–,–,–,–,–,–,–

# Reference: patent US20210395210A1, “INHIBITION OF BACTERIAL CHAPERONIN SYSTEMS” (THE TRUSTEES OF INDIANA UNIVERSITY, priority 2018, published 2021)
